Measurements taken from patent publication US20180116993A1, “MODULATORS OF FARNESOID X RECEPTOR AND METHODS FOR THE USE THEREOF” (XIAMEN UNIVERSITY, priority 2015, published 2018).
Marks after values point to notes of the source that are not given here.

What was measured:
[1] = tested on: mice with APAP-induced liver injury; assay: Acetaminophen (APAP)-induced liver injury in mouse; type: in vivo
Text: Methods: Acetaminophen (APAP)-induced liver injury in mouse is a commonly used model to study drugs protecting liver. Overdose of APAP causes liver injury by inducing the production of reactive oxygen species and reactive nitrogen species, and excessive consumption of reductive substances such as antioxidant glutathione (GSH), leading to the reduction of GSH in vivo, and the following upregulation of the activities of the aspartate aminotransferase (AST), the alanine aminotransferase (ALT) and the lactate dehydrogenase (LDH), which will result in liver inflammation and necrosis. In this example, the APAP-induced liver injury was used to detect the protection and repair functions of our compounds in liver injury.
One-year or 8-week age mice were maintained under environmentally controlled conditions with free access to standard chow diet and water. Animal experiments were conducted in the barrier facility of the Laboratory Animal Center, Xiamen University, approved by the Institutional Animal Use and Care Committee of Xiamen University, China.
Compounds were solved with DMSO and then prepared to work concentration with 40% HBC (2-hydroxypropyl-β-cyclodextrin) in which the final work concentrations of compounds are 5 mg/kg body weight, 10 mg/kg or 20 mg/kg in 100 μl injection volume and the concentration of DMSO is 10%. Compounds were intraperitoneal (i.p.) injected once daily for five days. For Feroline and Tschimganine, one-year age mice were used in the experiment. For other compounds, 8-week age mice were used. […] For Tschimganine, 20 mg/kg dose of compound was administered to mice. For other compounds, 5 mg/kg dose of compounds were administered to mice. Six hours after the fifth injection, 500 mg/kg body weight of APAP solved in PBS was i.p. injected to the mice. 24 hours later, mice were sacrificed. Part of each liver was fixed in 4% paraformaldehyde, and the liver histology characterization was analyzed by haematoxylin and eosin (H&E) staining with paraffin-embedded sections by standard procedures. Other liver tissues were collected for detecting the GSH levels, and the mRNA expression of genes involved in liver repairing, such as GPX1 and UGT1a1, by RT-PCR. The serums were collected to measure enzymes activities including AST, ALT and LDH. For the synthetic derivatives, ALT and GSH were selected as indicating markers for the function of these compounds.

KK-Ay mice = assay: Serum metabolic parameters in high-fat diet fed diabetic KK-Ay mice; type: in vivo, mouse; conditions: 10 mg/kg for 14 days, vehicle 253 ± 11
Text: (§1) KK-Ay mice (KK/Upj-Ay/J) are animal models with moderate obese and diabetes with insulin resistance. KK-Ay mice develop hyperglycemia, hyperinsulinemia, glucose intolerance and obesity as well as fat accumulation in liver by eight weeks of age. Pancreatic islets are hypertrophied and the β-cells are degranulated. db/db mice (BKS.Cg-Dockr+/+ Lepr^db/Jnju) are animal models of type II diabetes. They have the phenotype of insulin resistance. These model mice were used to detect the functions of our compounds on metabolic diseases.
(§2) 8-10 weeks age mice were maintained as example 4, and fed with high-fat diet (Research Diets, D12492). Mice were i.p. injected with compounds once daily for 7, 10, 11 or 14 days as indicated in each table. After the last compounds injection, mice were fasted for 6 hours with free access to water, and then sacrificed. Part of each liver was fixed in 4% paraformaldehyde for H&E staining, and other liver tissues were stored in liquid nitrogen for enzyme activity measurement and gene expression analysis by RT-PCR. The serums were collected to measure metabolic parameters, including serum glucose, insulin, cholesterol, free fatty acid (FFA) and triglyceride levels. Serum glucose was analyzed using glucose oxidase method (Applygen, Beijing, China). The blood glucose in Table 11 was measured with Berenger blood glucose test strips (B/BRAUN, German) from blood by cutting mice tail after the 6th injection and following fast for 16 hours. Serum cholesterol and FFA were analyzed using Cholesterol Assay Kit and FFA Assay Kit (Bioassay Systems, USA; Nanjing Jiancheng Bioengineering Institute, China; FFA ELISA, R&D, USA), respectively. Serum triglyceride was analyzed using Triglyceride Assay Kit (Bioassay Systems, USA; WAKO Chemicals Inc., Japan; Applygen, Beijing, China). Liver triglyceride was analyzed using Tissue triglyceride assay kit (Applygen, Beijing, China). Serum insulin levels were measured by the Ultra Sensitive Mouse Insulin ELISA Kit (Crystal Chem. Inc., USA). RNA was isolated using Tissue RNA kit (Omega Bio-Tek, GA). The first strand cDNA were obtained by TAKARA reverse transcription kit. Real-time quantitative PCR were performed on a CFX96™ Real-Time PCR Detection System (Bio-Rad) using SYBR Premix Ex Taq™ (TAKARA). Relative mRNA expression levels were normalized to actin levels.

db/db mice = assay: Serum/blood metabolic parameters in high-fat diet fed db/db mice; type: in vivo, mouse; conditions: 50 mg/kg for 7 days
Text: as §1
as §2, with “actin levels. […]” for “actin levels.”

[2] = tested on: mouse embryonic fibroblasts (MEFs); assay: GSH levels in mouse embryonic fibroblasts (MEFs); type: cell-based; conditions: 20 μM, 24 hours, vehicle 31 ± 6
Text: The reduced glutathione (GSH) is a natural antioxidant in cells and plays important function responding the oxidative stress. The GSH levels will decrease with age, infection, poisoning, exogenous toxins and oxidative stress. The Sestrin2 (Sesn2) gene encodes a conserved antioxidant protein that is induced on oxidative stress and protects cells against reactive oxygen species. SOD2 is an antioxidant enzyme. The antioxidants are defense system for organ to prevent damage by free radical. In this example, the mouse embryonic fibroblasts (MEFs) were treated with compounds for 24 hours, and the GSH levels were analyzed using GSH kit (Nanjing Jiancheng Engineering Institute, China). […] Correspondingly, the expression levels of the antioxidant genes such as SOD2 and SESN2 increased in compounds treated MEFs (Table 26 and Table 28).

[3] = Clearance of superoxide anion radical in vitro; conditions: method of CN 102813683 B, p<0.01

Hedragonic acid
Liver morphology by H&E staining (FIG. 1) ([1]; 10 mg/kg (Tschimganine 20 mg/kg) i.p. five days, then APAP, compared to severe liver injury in control group): almost normal liver morphology
expression levels of GPX1 and UGT1α1 in liver ([1]; mRNA by RT-PCR, vs vehicle control group, Table 5 (not given)): significantly upregulated
activities of serum AST, ALT and LDH ([1]; vs vehicle control group, Table 5 (not given)): dramatically lower
Serum Glucose (mg/dl) (KK-Ay mice): 161 ± 21^b mg/dl
Serum Insulin (ng/ml) (db/db mice; vehicle 12 ± 3): 4.65 ± 0.2^b ng/ml
Serum Glucose (mg/dl) (db/db mice; vehicle 521 ± 54): 334 ± 50^a mg/dl
GSH (μM) [2]: 72 ± 9^a μM
clearance rate to superoxide anion radical [3]: 58%±6.4%
